Reference: US8536226B2, “Methods for the treatment of dermatological disorders” (Janssen Pharmaceutica, NV, priority 2008, dated 2013)
Where “and” joins values, the source holds several entries; their conditions need not be identical. Identical values can stand only once. Like-named read-outs stand apart in the source and are kept apart here.

Legend:
rabbit adipocytes = conditions: read-out: EC50, lipolytic activity; cited from earlier work
[1] = tested on: isolated non-human primate adipocytes; conditions: concentrations as high as 1 μM; cited from earlier work
[2] = tested on: isolated human adipocytes; conditions: concentrations as high as 1 μM; cited from earlier work
rat adipocytes = conditions: read-out: EC50, lipolytic activity; cited from earlier work
[3] = target: T1, Melanocortin-5 (MC-5) receptor (Homo sapiens, UniProt P33032); assay: MC-5 receptor binding assay, CEREP (human recombinant CHO cells, [125]NDP-α-MSH)
Procedure: (§1) Binding to the MC-5 receptor was measured in two assays, performed by CEREP and MDS-PANLABS.
The assay run by CEREP (Catalog Ref. #889-5h) used human recombinant CHO cells, ^[125]NDP-α-MSH as the ligand (0.05 nM concentration), NDP-α-MSH as the non-specific (1 μM), incubating at 37° C. for 60 min and detecting binding via scintillation counting. The specific ligand binding to the receptors was defined as the difference between the total binding and the nonspecific binding determined in the presence of an excess of unlabelled ligand. The IC50 values (the concentration causing a half-maximal inhibition of control specific binding) and Hill coefficients were determined by non-linear regression analysis of the competition curves generated with mean replicate values using Hill equation curve fitting (Y=D+[(A−D)/(1+(C/C50)^nH)], where Y=specific binding, D=minimum specific binding, A=maximum specific binding, C=compound concentration, C50=IC50, and nH=slope factor). This analysis was performed using software developed at CEREP (Hill software) and validated by comparison with data generated by the commercial software SigmaPlot® 4.0 for Windows® (© 1997 by SPSS Inc.). The inhibition constants (Ki) were calculated using the Cheng Prusoff equation (Ki=IC50/(1+(L/KD)), where L=concentration of radioligand in the assay, and KD=affinity of the radioligand for the receptor). […]

human sebocytes [4] = assay: cells; assay type: cell-based; conditions: read-out: % Inhibition (Nile Red Fluorescence)
human sebocytes [5] = assay: cells; assay type: cell-based
[6] = target: T1, Melanocortin-5 (MC-5) receptor; assay: MC-5 receptor binding assay, MDS-PANLABS (human recombinant HEK-293 cells, [125]NDP-α-MSH); set-up: host or cells: HEK-293 cells
Procedure: as §1
The assay run by MDS-PANLABS (Catalog Ref #251400) used human recombinant HEK-293 cells, ^[125]NDP-α-MSH as the ligand (0.035 nM), various concentrations of the compound of formula (I), incubating at 37° C. for 60 min, and detecting binding via scintillation counting. Specific ligand binding to the receptors was defined as the difference between the total binding and the nonspecific binding determined in the presence of an excess (3 μM) of unlabelled NDP-α-MSH. IC50 values were determined by a non-linear, least squares regression analysis using Data Analysis Toolbox. Inhibition constants (Ki) were calculated using the equation of Cheng and Prusoff (Biochem. Pharmacol. 22:3099, 1973) using the observed IC50 of the tested compound, the concentration of radioligand employed in the assay, and the historical values for the Kd of the ligand (obtained experimentally at MDS Pharma Services).
The compound of formula (I) was tested for binding to the MC-5 receptor in both the CEREP and MDS-PANLABS assays with results as listed in Table 3 below.

T1 sequence (P33032 whole entry): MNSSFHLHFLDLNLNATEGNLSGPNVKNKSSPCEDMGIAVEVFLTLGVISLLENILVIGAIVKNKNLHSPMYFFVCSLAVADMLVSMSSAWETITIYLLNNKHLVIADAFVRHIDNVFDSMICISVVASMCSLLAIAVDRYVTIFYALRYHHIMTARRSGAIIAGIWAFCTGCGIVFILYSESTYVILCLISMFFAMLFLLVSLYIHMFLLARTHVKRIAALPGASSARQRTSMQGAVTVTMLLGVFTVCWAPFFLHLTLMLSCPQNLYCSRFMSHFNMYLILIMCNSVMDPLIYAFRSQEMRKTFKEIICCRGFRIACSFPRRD

In the case of “ACTH: melanocortin neuropeptide arising from pro-opiomelanocortin (POMC) (SYSMEHFRWGKPVGKKRRPVKVYPNGAEDESAEAFPLEF; Corticotropin; UniProt P01189 138-176, looked up)”, the EC50 (rabbit adipocytes) is given as 16.4 nM, the effect on lipolysis [1] is given as “very little effect” and the effect on lipolysis [2] is given as “very little effect”. For the same molecule, the EC50 (rat adipocytes) was 1.34 nM.

In the case of `COc1ccccc1N/C(=N\C(=S)Nc1ccccc1)c1ccccc1OC` [Compound (I), 1-[(2-methoxy-phenyl)-(2-methoxy-phenylamino)-methylene]-3-phenyl-thiourea], the IC50 ([3]; CHO cells, 0.05 nM radioligand) is reported as 57000 nM, the Ki ([3]; Cheng Prusoff) is reported as 53000 nM and the inhibition at 0.4 µM (human sebocytes [4]) is reported as 24%. The inhibition at 0.6 µM (human sebocytes [4]) was 25%, the inhibition at 0.8 µM (human sebocytes [4]) was 39% and the inhibition at 1 µM (human sebocytes [4]) was 45%. For the same molecule, the inhibition at 1.2 µM (human sebocytes [4]) was 43%, the inhibition at 0.8 µM (human sebocytes [5]; read-out: % Inhibition of Sebaceous Lipid Synthesis, cholesterol esters, Study 1, @ 0.8 μM) was 30% and the inhibition at 1.2 µM (human sebocytes [5]; read-out: % Inhibition of Sebaceous Lipid Synthesis, cholesterol esters, Study 1, @ 1.2 μM) was 35%. The inhibition at 1.6 µM (human sebocytes [5]; read-out: % Inhibition of Sebaceous Lipid Synthesis, cholesterol esters, Study 1, @ 1.6 μM) was 45%, the inhibition at 3.2 µM (human sebocytes [5]; read-out: % Inhibition of Sebaceous Lipid Synthesis, cholesterol esters, Study 1, @ 3.2 μM) was 60% and the inhibition at 0.4 µM (human sebocytes [5]; read-out: % Inhibition of Sebaceous Lipid Synthesis, cholesterol esters, Study 2, @ 0.4 μM) was 44%. For the same molecule, the inhibition at 0.8 µM (human sebocytes [5]; read-out: % Inhibition of Sebaceous Lipid Synthesis, cholesterol esters, Study 2, @ 0.8 μM) was 64%, the inhibition at 1.2 µM (human sebocytes [5]; read-out: % Inhibition of Sebaceous Lipid Synthesis, cholesterol esters, Study 2, @ 1.2 μM) was 72% and the inhibition at 1.6 µM (human sebocytes [5]; read-out: % Inhibition of Sebaceous Lipid Synthesis, cholesterol esters, Study 2, @ 1.6 μM) was 74%. For the same molecule, the inhibition at 3.2 µM (human sebocytes [5]; read-out: % Inhibition of Sebaceous Lipid Synthesis, cholesterol esters, Study 2, @ 3.2 μM) was 86%, the inhibition at 0.8 µM (human sebocytes [5]; read-out: % Inhibition of Sebaceous Lipid Synthesis, squalene, Study 1, @ 0.8 μM) was 50% and the inhibition at 1.2 µM (human sebocytes [5]; read-out: % Inhibition of Sebaceous Lipid Synthesis, squalene, Study 1, @ 1.2 μM) was 55%. It also gave an inhibition at 1.6 µM (human sebocytes [5]; read-out: % Inhibition of Sebaceous Lipid Synthesis, squalene, Study 1, @ 1.6 μM) of 62%, an inhibition at 3.2 µM (human sebocytes [5]; read-out: % Inhibition of Sebaceous Lipid Synthesis, squalene, Study 1, @ 3.2 μM) of 76% and an inhibition at 0.4 µM (human sebocytes [5]; read-out: % Inhibition of Sebaceous Lipid Synthesis, squalene, Study 2, @ 0.4 μM) of 64%. The inhibition at 0.8 µM (human sebocytes [5]; read-out: % Inhibition of Sebaceous Lipid Synthesis, squalene, Study 2, @ 0.8 μM) was 88%, the inhibition at 1.2 µM (human sebocytes [5]; read-out: % Inhibition of Sebaceous Lipid Synthesis, squalene, Study 2, @ 1.2 μM) was 92% and the inhibition at 1.6 µM (human sebocytes [5]; read-out: % Inhibition of Sebaceous Lipid Synthesis, squalene, Study 2, @ 1.6 μM) was 94%. It also gave an inhibition at 3.2 µM (human sebocytes [5]; read-out: % Inhibition of Sebaceous Lipid Synthesis, squalene, Study 2, @ 3.2 μM) of 96%, an inhibition at 0.8 µM (human sebocytes [5]; read-out: % Inhibition of Sebaceous Lipid Synthesis, triglycerides, Study 1, @ 0.8 μM) of 0% and an inhibition at 1.2 µM (human sebocytes [5]; read-out: % Inhibition of Sebaceous Lipid Synthesis, triglycerides, Study 1, @ 1.2 μM) of 10%. It also gave an inhibition at 1.6 µM (human sebocytes [5]; read-out: % Inhibition of Sebaceous Lipid Synthesis, triglycerides, Study 1, @ 1.6 μM) of 8%, an inhibition at 3.2 µM (human sebocytes [5]; read-out: % Inhibition of Sebaceous Lipid Synthesis, triglycerides, Study 1, @ 3.2 μM) of 2% and an inhibition at 0.4 µM (human sebocytes [5]; read-out: % Inhibition of Sebaceous Lipid Synthesis, triglycerides, Study 2, @ 0.4 μM) of 22%. It also gave an inhibition at 0.8 µM (human sebocytes [5]; read-out: % Inhibition of Sebaceous Lipid Synthesis, triglycerides, Study 2, @ 0.8 μM) of 20%, an inhibition at 1.2 µM (human sebocytes [5]; read-out: % Inhibition of Sebaceous Lipid Synthesis, triglycerides, Study 2, @ 1.2 μM) of 16% and an inhibition at 1.6 µM (human sebocytes [5]; read-out: % Inhibition of Sebaceous Lipid Synthesis, triglycerides, Study 2, @ 1.6 μM) of 14%. For the same molecule, the inhibition at 3.2 µM (human sebocytes [5]; read-out: % Inhibition of Sebaceous Lipid Synthesis, triglycerides, Study 2, @ 3.2 μM) was 6%, the IC50 ([6]; MDS-PANLABS MEAN ± SD) was 2350 ± 1670 nM and the Ki ([6]; MDS-PANLABS MEAN ± SD) was 2200 ± 1560 nM. The Ki ([6]; MDS-PANLABS assay, Cheng Prusoff, single runs) was 1100 nM and 3310 nM and the IC50 ([6]; MDS-PANLABS assay, HEK-293 cells, 0.035 nM radioligand, single runs) was 1170 nM and 3530 nM.

For αMSH, the EC50 (rabbit adipocytes) is listed as 3.7 nM.
